Assay results taken from US20090221082A1, “Microfluidic Evaporators And Determining Physical And/Or Chemical Properties Of Chemical Compounds Therewith” (Rhodia Operations, priority 2005, published 2009).

Test: Evaporation-induced nucleation and crystal growth of KCl aqueous solutions in microchannel fingers
Assay type: physicochemical
Excerpt: The devices used are two-layer PDMS on glass Microsystems (FIG. 1). The microchannels (flowing channel(s)) of the bottom layer are filled with the solution of interest, while air is circulated through the microchannels (evaporation chamber) of the top layer so as to remove the water that pervaporates through the thin membrane of PDMS that separate the two networks where they overlap (thickness e in the 10-30 μm range). Many combinations of geometries for the bottom and top networks can be envisaged. We focus here on the simple “finger” geometry of FIG. 1, a dead end (blind extremity) channel of rectangular cross section (height h, width w, length L) connected to a larger (millimetric) feeding reservoir containing the solution to be concentrated. A terminal section of length L0<L (typically mms to cms) is covered by the water removal network. The operation principle is simple: water in the bottom channel pervaporates through the thin membrane, which induces a compensating flow from the reservoir and concentration of solutes at the finger tip. […]
FIG. 11: Top: view of the chip with 15 microchannels with different evaporation lengths L0 (the bottom of the frame is the end of the evaporation zone). […] Crystal growth is then monitored xf(t). […]

In the case of [Cl-].[K+] [KCl, potassium chloride], the nucleation concentration cc (KCl aqueous solution, at this temperature) is reported as 4.0 ± 0.5 M and the “solute concentration cx in the growing crystal (crystal density)” value (from initial crystal growth rate and mass conservation, Te=800±50 s) is reported as 20 ± 2 M.
